Reference: PubChem BioAssay (NCI)
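All cell lines were grown in 96-well plates and treated with compound for 48 hours. Here, GI50 denotes the concentration required for 50% inhibition of growth. TGI denotes the concentration required for complete inhibition of growth.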

Legend:
Assay in all cases: DTP human tumour cell line panel, 48 h
[1] = system: PC-3 prostate
[2] = system: MDA-MB-231 breast
[3] = system: BT-549 breast
[4] = system: MDA-MB-435
[5] = system: MCF7 breast
[6] = system: DU-145 prostate

Compound | GI50 [1] [µM] | TGI [1] [µM] | GI50 [2] [µM] | TGI [2] [µM] | GI50 [3] [µM] | TGI [3] [µM] | GI50 [4] [µM] | TGI [4] [µM] | GI50 [5] [µM] | TGI [5] [µM] | GI50 [6] [µM] | TGI [6] [µM]
CNC(=O)c1ccccc1Nc1nc(Nc2ccc(N3CCOCC3)cc2OC)ncc1Cl | 1.39 | > 66.9 | 1.09 | 5.26 | 2.58 | > 39.1 | 0.629 | > 66.4 | 0.133 | > 50.7 | 0.768 | > 39.2
CCOc1ccccc1-n1c(CN2CCN(C(=O)COc3ccc(CNCCCCCCN4C5CCCC4CC(OC(=O)Nc4cc(C)ccc4OC)C5)cc3)CC2)nc2ccccc2c1=O (centres undefined) | 1.59 | 3.61 | 0.815 | 2.13 | 1.72 | 3.26 | 0.811 | 2.12 | 0.75 | 2.06 | 1.8 | 3.49
COc1cc2nc(-c3ccc(C(F)(F)F)cc3)cc(OCCCN3CCC(O)CC3)c2cc1OC | 3.66 | 19.5 | 0.919 | 15.6 | 6.59 | 22.1 | 2.76 | 9.31 | 2.57 | 18.2 | 4.96 | 20.4
Cc1ccc(-c2nnc(-c3ccc4ccccc4c3)o2)cc1 | – | > 100 | – | > 100 | – | > 93.5 | – | > 100 | – | > 100 | – | > 100
COc1ccc(-c2cc(-c3ccc(Nc4nc(Nc5ccccc5)nc(Nc5ccc(Cl)cc5)n4)cc3)nc(N)c2C#N)cc1 | 1.13 | 7.94 | 1.01 | 2.46 | 0.822 | 2.49 | 0.962 | 2.16 | 0.941 | > 50 | 2.41 | > 50
COc1cc2c(c(OC)c1O)C(=O)C(OC)C(c1ccc(O)c(O)c1)O2 (centres undefined) | 0.599 | > 50.6 | 0.554 | > 100 | 0.362 | > 100 | 0.126 | – | 0.391 | > 100 | 0.374 | > 100
CC(=O)[O][Hg][c]1c(N)c(C)cc(C)c1F | 2.03 | 6.61 | 1.17 | 2.64 | 2.22 | 5.29 | 1.48 | 2.96 | 0.665 | 2.99 | 2.39 | 7.14
NC(CSC(c1ccccc1)(c1ccccc1)c1ccc2c(c1)OCO2)C(=O)O (centres undefined) | 0.521 | > 69.6 | 0.365 | 14.4 | 0.559 | 75.9 | – | – | 0.298 | 40.2 | 2.33 | 6.88
CC1=C(C#N)C23C(=O)c4ccccc4C(O)=C2C(=O)C=CC3(O)N1Cc1ccccc1 (centres undefined) | 47 | > 100 | 44.4 | > 100 | 36.2 | > 100 | 38.6 | > 100 | 41.6 | > 100 | 35.1 | > 100
CSc1ccccc1C#C/C=C\C#Cc1ccccc1N1CCCC1=O | > 50 | > 50 | – | > 50 | – | > 45.4 | – | > 13.9 | – | > 50 | > 22.5 | > 50
O=C(CN1CCN(c2cc3c(cc2F)c(=O)c(C(=O)N/N=C/c2ccccc2O)cn3C2CC2)CC1)N/N=C\c1ccccc1O | 0.531 | > 100 | 0.533 | > 69.3 | 1.51 | > 100 | 0.99 | > 100 | 0.398 | > 100 | 0.716 | > 100
Cc1cc(=O)n2[nH]c(-c3ccc(C(C)(C)C)cc3)cc2n1 | 4.13 | 40.6 | 13 | > 100 | 17.4 | > 100 | 5.44 | > 100 | 7.43 | > 100 | 11.4 | 75.9
O=C(Nc1ccc(F)cc1F)c1cc(I)ccc1O | 2.53 | 8.73 | 1.87 | 5.8 | 1.99 | 5.16 | 3.02 | 10.1 | 2.77 | > 100 | 3.87 | > 100
COC(=O)Nc1nc2ccc(S(=O)c3ccccc3)cc2[nH]1 (centres undefined) | 6.75 | > 100 | 7.45 | > 100 | 3.98 | > 100 | 1.26 | 3.94 | 3.12 | > 100 | 31 | > 100
Fc1ccc(Nc2ncnc3ccc(-c4cnc5[nH]ccc5c4)cc23)cc1Cl | 3.54 | 27.3 | 2.03 | 6.06 | 3.11 | > 27.9 | 8.66 | > 80.1 | 0.335 | > 38 | 4.58 | > 93.3
CCOC(=O)Nc1nc2ccc(OCC)cc2s1 | > 100 | > 100 | > 100 | > 100 | > 100 | > 100 | 0.773 | 3.71 | 4.14 | > 100 | > 100 | > 100
CCCCCCCCSC1=CC(=O)c2nc3ccccc3c3ccnc1c23 | 77.9 | > 100 | 5.94 | > 100 | > 100 | > 100 | 41.7 | > 100 | 20.2 | 57.4 | > 100 | > 100
O=C(O)c1cc(C(=O)O)cc(N2C(=O)c3ccccc3C2=O)c1 | – | > 100 | – | > 100 | – | > 100 | – | > 100 | – | > 100 | – | > 100
Cc1cnc(NC(=O)C(Cc2ccccc2)NC(=O)c2ccccc2)s1 (centres undefined) | – | – | 6.42 | 27.1 | 29.1 | > 100 | 3.02 | 15.6 | 1.55 | 5.12 | 21.4 | 47
COc1c2ccoc2c(/C=C/C=O)c2oc(-c3ccccc3)cc(=O)c12 | 3.23 | > 100 | 4.1 | > 100 | 2.88 | 13.1 | 4.83 | > 100 | 2.72 | 58.3 | 10.7 | > 100
